Measurements from US8461162B2, “Pyrazolo[1,5-a]pyrimidine derivatives” (Merck Sharp & Dohme Corp., priority 2007, dated 2013).

What follows are molecules tested against T1, recombinant MARK3 enzyme (Homo sapiens, UniProt P27448) (assay: MARK 3 Assay (HTRF, Cdc25C biotinylated peptide substrate)). Details: 10 μM ATP, 2 hours at 25° C.
T1 construct: purchased University of Dundee
Assay type: biochemical
Experimental: MARK3 activity was assayed in vitro using a Cdc25C biotinylated peptide substrate (Cell Signalling Technologies). The phosphopeptide product was quantitated using a Homogenous Time-Resolved Fluorescence (HTRF) assay system (Park et al., 1999, Anal. Biochem. 269:94-104). The reaction mixture contained 50 mM HEPES/Tris-HCl, pH 7.4; 10 mM NaCl, 5 mM MgCl2, 0.2 mM NaVO4, 5 mM β-glycerol phosphate, 0.1% Tween-20, 2 mM dithiothreitol, 0.1% BSA, 10 μM ATP, 1 μM peptide substrate, and 10 nM recombinant MARK3 enzyme (University of Dundee) in a final volume of 12 μl. The buffer additionally contained protease inhibitor cocktail (Roche EDTA-free, 1 tab per 50 ml). The kinase reaction was incubated for 2 hours at 25° C., and then terminated with 3 μl Stop/Detection Buffer (50 mM HEPES, pH 7.0, 16.6 mM EDTA, 0.5M KF, 0.1% Tween-20, 0.1% BSA, 2 μg/ml SLX^ent 665 (CISBIO), and 2 μg/ml Eu^3+ cryptate label antibody (CISBIO)). The reaction was allowed to equilibrate overnight at 0° C., and relative fluorescent units were read on an HTRF enabled plate reader (e.g. TECAN GENios Pro).
Inhibitor compounds were assayed in the reaction described above to determine compound IC50s. Aliquots of compound dissolved in DMSO were added to the reaction wells in a third-log dilution series covering a range of 1 nM to 10 μM. Relative phospho substrate formation, read as HTRF fluorescence units, was measured over the range of compound concentrations and a titration curve generated.

T1 sequence (P27448 whole entry, species assumed): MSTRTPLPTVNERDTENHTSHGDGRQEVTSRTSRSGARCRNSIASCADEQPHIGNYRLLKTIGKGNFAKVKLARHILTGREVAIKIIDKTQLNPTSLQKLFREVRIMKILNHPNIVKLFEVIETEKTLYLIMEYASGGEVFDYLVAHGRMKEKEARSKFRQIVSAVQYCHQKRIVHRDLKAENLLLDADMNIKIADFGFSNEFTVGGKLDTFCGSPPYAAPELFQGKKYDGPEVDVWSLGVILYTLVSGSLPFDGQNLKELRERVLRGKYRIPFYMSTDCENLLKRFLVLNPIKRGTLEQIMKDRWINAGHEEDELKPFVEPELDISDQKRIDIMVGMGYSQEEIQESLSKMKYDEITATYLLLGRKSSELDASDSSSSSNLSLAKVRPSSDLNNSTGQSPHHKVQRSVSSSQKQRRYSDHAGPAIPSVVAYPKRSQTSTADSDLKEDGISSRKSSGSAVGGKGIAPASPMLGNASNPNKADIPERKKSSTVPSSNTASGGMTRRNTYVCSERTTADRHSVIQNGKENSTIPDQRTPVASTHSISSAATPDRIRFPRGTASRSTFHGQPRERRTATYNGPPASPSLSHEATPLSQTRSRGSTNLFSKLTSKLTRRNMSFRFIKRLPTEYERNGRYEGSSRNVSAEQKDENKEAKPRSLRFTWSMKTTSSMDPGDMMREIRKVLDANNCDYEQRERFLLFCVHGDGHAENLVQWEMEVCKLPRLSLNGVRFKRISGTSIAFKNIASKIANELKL

SMILES | IC50 [µM]
O=C(NCC(F)(F)F)c1cc(-c2cnn3cc(-c4ccn(CCCN5CCC(F)(F)C5)c(=O)c4)cnc23)cs1 [Example 8, 4-(6-{1-[3-(3,3-difluoropyrrolidin-1-yl)propyl]-2-oxo-1,2-dihydropyridin-4-yl}pyrazolo[1,5-a]pyrimidin-3-yl)-N-(2,2,2-trifluoroethyl)thiophene-2-carboxamide] | 0.158
CC(C)[C@@H](NC(=O)c1cc(-c2cnn3cc(-c4ccc(NCC(C)(C)O)nc4)cnc23)cs1)C(F)(F)F [Example 49, 4-(6-{6-[(2-hydroxy-2-methylpropyl)amino]pyridin-3-yl}pyrazolo[1,5-a]pyrimidin-3-yl)-N-[(1R)-2-methyl-1-(trifluoromethyl)propyl]thiophene-2-carboxamide] | 0.004
O=C(NCC(F)(F)F)c1cc(-c2cnn3cc(-c4ccc(N5CCOCC5)nc4)cnc23)cs1 [Example 50, 4-[6-(6-morpholin-4-ylpyridin-3-yl)pyrazolo[1,5-a]pyrimidin-3-yl]-N-(2,2,2-trifluoroethyl)thiophene-2-carboxamide] | 0.035

Other lines, results leading:

IC50 [µM] | SMILES
< 0.0003 | Cc1sc(C(=O)N[C@@H]2[C@H](N)CCCC2(F)F)cc1-c1cnn2cc(-c3cnn(C)c3)cnc12 [Example 202, N-[(1R,6R)-6-amino-2,2-difluorocyclohexyl]-5-methyl-4-[6-(1-methyl-1H-pyrazol-4-yl)pyrazolo[1,5-a]pyrimidin-3-yl]thiophene-2-]
0.06 | Cn1cc(-c2cnc3c(-c4nc(C(=O)NCC(F)(F)F)sc4Cl)cnn3c2)cn1 [Example 205, 5-chloro-4-[6-(1-methyl-1H-pyrazol-4-yl)pyrazolo[1,5-a]pyrimidin-3-yl]-N-(2,2,2-trifluoroethyl)-1,3-thiazole-2-carboxamide]
0.127 | Cn1cc(-c2cnc3c(-c4ccc(C(=O)N[C@@H]5CCCC[C@@H]5N)cc4)cnn3c2)cn1 (stereo in doubt) [Example 219, N-[2-aminocyclohexyl]-4-[6-(1-methyl-1H-pyrazol-4-yl)pyrazolo[1,5-a]pyrimidin-3-yl]benzamide]
0.607 | O=C(NCc1nccs1)c1cc(-c2cnn3cc(-c4cccnc4)cnc23)cs1 [Example 184, 4-(6-pyridin-3-ylpyrazolo[1,5-a]pyrimidin-3-yl)-N-(1,3-thiazol-2-ylmethyl)thiophene-2-carboxamide]
